# In patent US6750244B2, “Compounds active at a novel site on receptor-operated calcium channels useful for treatment of neurological disorders and diseases” (NPS Pharmaceuticals, Inc., priority 1993, dated 2004):
# Read-outs that look alike come from different tables or passages of the source.
# What was measured:
# NMDA receptor [1] = test: Inhibition of NMDA/glycine-induced increases in intracellular calcium in cultured rat cerebellar granule cells (RCGC); type: cell-based; conditions: NMDA/glycine-induced increases in intracellular calcium, cultured rat cerebellar granule cells; read-out: IC50 (μM) vs. NMDA
# [2] = biological target: NMDA receptor-ionophore complex (site labeled by [3H]MK-801); test: Inhibition of [3H]MK-801 binding in rat cortical/hippocampal washed membrane preparations; conditions: read-out: IC50 (μM) vs. [3H]MK-801; rat cortical/hippocampal washed membranes
# L-type calcium channel = test system: T1, L-type calcium channel; test: Inhibition of KCl depolarization-induced increases in intracellular calcium in cultured rat cerebellar granule cells; type: cell-based; conditions: cultured rat cerebellar granule cells; read-out: L-type calcium channel: estimated IC50, KCl depolarization-induced increases in intracellular calcium
# T1 construct: L-type calcium channel: estimated IC50, KCl depolarization-induced increases in intracellular calcium; other: cultured
# Excerpt: The ability of arylalkylamines to inhibit dihydropyridine-sensitive Ca^2+ channels was examined in cerebellar granule cells and a rat aortic smooth muscle cell line, A7r5 cells.
# [3] = test system: delayed rectifier potassium channel; test: Inhibition of delayed rectifier potassium channel in cultured N1E-115 neuroblastoma cells; type: cell-based; conditions: read-out: Delayed rectifier potassium channel: estimated IC50
# [4] = test system: central muscarinic cholinergic receptor; type: binding, rat
# dopamine uptake site = biological target: T2, dopamine uptake site (Cavia porcellus, UniProt H0WCX4); test: Dopamine uptake binding assay: [3H]WIN-35,428 binding to guinea pig striatal membranes
# T2 construct: from tissue; host or cells: guinea pig striatal membranes (per the assay title)
# [5] = biological target: T3, norepinephrine uptake site (Rattus norvegicus, UniProt Q63380); test: Norepinephrine uptake binding assay: [3H]desipramine binding to rat cortical membranes
# T3 construct: from tissue; host or cells: rat cortical membranes (per the assay title)
# serotonin uptake site = biological target: T4, serotonin uptake site (Rattus norvegicus, UniProt P31652); test: Serotonin uptake binding assay: [3H]citalopram binding to rat forebrain membranes
# T4 construct: from tissue; host or cells: rat forebrain membranes (per the assay title)
# NMDA receptor [6] = conditions: rat hippocampal slices
# Protocol: Glutamate-mediated transmission at synapses of Schaffer collateral fibers and CA1 pyramidal cells was measured in slices of rat brain containing the hippocampus. This assay measures electrophysiologically the postsynaptic depolarization caused by the presynaptic release of glutamate, and can readily distinguish synaptic transmission mediated by NMDA or AMPA receptors.
# induction of LTP = test system: induction of LTP; design: species or system rat; conditions: at 100 μM
# permanent focal ischemia = test: Permanent focal cerebral ischemia (middle cerebral artery occlusion, suture); type: in vivo, rat; conditions: 1 mg/kg i.p. at 30 min and again 4 hr post-occlusion
# Protocol: In the second study of focal cerebral ischemia in the rat, the middle cerebral artery was permanently occluded by passing a small piece of suture thread through the carotid artery to the region of the middle cerebral artery. Core body temperature was maintained at 37° C. Compound 4, 10 mg/kg i.p. administered immediately after the onset of the ischemic event, produced a statistically significant reduction in the volume of the brain infarct (20%) recorded 24 hr later.
# focal ischemia = test: Photothrombotic (Rose Bengal) model of focal cerebral ischemia; type: in vivo, rat; conditions: 10 mg/kg i.p. at 15 min, 3 hr, and again 6 hr post-occlusion
# Excerpt: In a third model of focal cerebral ischemia in the rat, an ischemic infarct was produced by a photothrombotic method using the dye Rose Bengal.
# temporary focal ischemia = test: Temporary focal cerebral ischemia (middle cerebral artery occlusion, suture withdrawn after 2 hr); type: in vivo, rat; conditions: two doses of 1 mg/kg i.p.
# Protocol: In a fourth model of focal cerebral ischemia in the rat, the middle cerebral artery was temporarily occluded by passing a small piece of suture thread through the carotid artery to the region of the middle cerebral artery. The suture thread was withdrawn after an ischemic period of 2 hr. Core body temperature was maintained at 37° C. […]
# sound-induced seizures = test: Sound-induced seizures in Frings mice (reflex epilepsy); type: in vivo; conditions: Mus musculus, Frings mice
# [7] = test system: maximal electroshock-induced seizures; test: Maximal electroshock-induced seizures in mice; type: in vivo; conditions: mice; for ED50: Mus musculus, ip
# [8] = test system: maximal electroshock-induced seizures; test: Maximal electroshock-induced seizures in rats; type: in vivo; conditions: Rattus norvegicus, read-out: ED50, maximal electroshock-induced seizures
# seizure threshold = test: i.v. Metrazol test (seizure threshold) in mice; type: in vivo; conditions: 10 mg/kg i.p.
# [9] = test system: acetic acid-induced writhing; type: in vivo, mice; conditions: 10 mg/kg i.p.
# thermal nociception [10] = type: in vivo, rats; conditions: 25 mg/kg i.p.
# Protocol: In these experiments, a 52° C. hot plate was used as the nociceptive stimulus.
# thermal nociception [11] = type: in vivo, rats; conditions: 25 mg/kg i.p.; remark: listed apart in the source
# Protocol: In this standard assay, the thermal nociceptive stimulus was 52° C. warm water with the latency to tail flick or withdrawal taken as the endpoint.
# [12] = test system: formalin-induced flinching; type: in vivo, Sprague-Dawley rats; conditions: 10 mg/kg i.p.
# in vivo [13] = conditions: mouse, in vivo, ip
# Protocol: (§1) In this assay, Frings and CF1 mice were injected with test compound and placed on a knurled rod which rotated at a speed of 6 rpm. The ability of the mice to maintain equilibrium for long periods of time was determined; those mice that were unable to maintain equilibrium on the rotorod for 1 min in each of 3 trials were considered impaired.
# motor performance = test: Acute motor impairment (rotorod) in mice; conditions: for TD50 (motor impairment): Frings mice
# Protocol: as §1
# [14] = test system: PCP-like discriminative stimulus effects; type: in vivo, rats; conditions: i.p., rats
# Excerpt: In this assay, rats who have been trained to lever press for food reinforcement must select which of two levers in their cages is correct. The only stimulus they hive for selecting the correct lever is their ability to detect whether they received a PCP or vehicle injection After about two months of training, rats become very good at discriminating PCP from vehicle injections and can then be tested with other drugs to determine if they are discriminated as PCP. When tested in this procedure, other drugs which are known to produce a PCP-like intoxication substitute for PCP. These drugs include various PCP analogs such as ketamine and the noncompetitive NMDA receptor antagonist, MK-801.
# [15] = test system: mean arterial blood pressure
# [16] = Motor toxicity (TD50) in rats; conditions: rat, in vivo, po
# behavior [17] = test: Behavioral effects in conscious beagle dogs
# behavior [18] = test: Behavioral effects in conscious male NMRI mice
# [19] = test system: mean arterial pressure, heart rate, ECG; test: Cardiovascular activity in conscious beagle dogs
# behavior [20] = test: Behavioral effects in conscious male Wistar rats
# focal ischemic stroke = test: Rat model of focal ischemic stroke (vessel occlusion); type: in vivo, rats; conditions: i.p. 2 mg/kg 30 min prior to vessel occlusion and 2 mg/kg 3 hr post-occlusion
# in vivo [21] = conditions: rat, po
# GluR1 [22] = biological target: T5, GluR1 (Rattus norvegicus, UniProt P19490); conditions: cited from earlier work
# T5 construct: host or cells: Xenopus oocytes
# GluR3 = biological target: T6, GluR3 (Rattus norvegicus, UniProt P19492); conditions: cited from earlier work
# T6 construct: host or cells: Xenopus oocytes
# NMDA receptors = conditions: read-out: IC50, NMDA-induced responses; cited from earlier work
# kainate receptors = conditions: read-out: IC50, kainate-induced responses; cited from earlier work
# NMDAR1 = biological target: T7, NMDAR1 (UniProt A7XY94+P35439); conditions: cited from earlier work
# T7 construct: host or cells: Xenopus oocytes
# GluR1 [23] = biological target: T5, GluR1; conditions: cited from earlier work; remark: listed apart in the source
# GluR1+GluR2 = biological target: T8, GluR1+GluR2 (Rattus norvegicus, UniProt P19490+P19491, Q607R); conditions: cited from earlier work
# T8 construct: host or cells: Xenopus oocytes
# [24] = test system: muscle relaxation and anesthesia; conditions: intrathecal administration; cited from earlier work
# [25] = 3 mg/kg i.v. (60 sec bolus injection)
# [26] = 10 mg/kg i.v. (60 sec bolus injection)
# T2 sequence (H0WCX4 1-619): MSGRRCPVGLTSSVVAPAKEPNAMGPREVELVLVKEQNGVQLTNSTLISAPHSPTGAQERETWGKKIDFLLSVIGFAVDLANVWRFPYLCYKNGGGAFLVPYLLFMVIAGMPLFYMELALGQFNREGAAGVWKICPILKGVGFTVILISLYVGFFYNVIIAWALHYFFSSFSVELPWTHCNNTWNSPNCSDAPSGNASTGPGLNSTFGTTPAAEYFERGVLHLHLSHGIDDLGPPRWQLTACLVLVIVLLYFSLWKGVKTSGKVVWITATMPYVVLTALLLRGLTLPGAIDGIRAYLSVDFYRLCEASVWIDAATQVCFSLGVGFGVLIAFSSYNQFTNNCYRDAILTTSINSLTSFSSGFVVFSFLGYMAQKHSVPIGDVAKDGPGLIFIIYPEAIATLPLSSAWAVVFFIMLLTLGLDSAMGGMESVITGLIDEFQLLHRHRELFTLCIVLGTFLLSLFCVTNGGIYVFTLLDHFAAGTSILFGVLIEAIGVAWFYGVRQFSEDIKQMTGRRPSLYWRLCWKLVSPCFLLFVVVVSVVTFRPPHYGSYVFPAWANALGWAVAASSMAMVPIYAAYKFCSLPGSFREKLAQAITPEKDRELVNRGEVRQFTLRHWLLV
# T3 sequence (Q63380 1-617): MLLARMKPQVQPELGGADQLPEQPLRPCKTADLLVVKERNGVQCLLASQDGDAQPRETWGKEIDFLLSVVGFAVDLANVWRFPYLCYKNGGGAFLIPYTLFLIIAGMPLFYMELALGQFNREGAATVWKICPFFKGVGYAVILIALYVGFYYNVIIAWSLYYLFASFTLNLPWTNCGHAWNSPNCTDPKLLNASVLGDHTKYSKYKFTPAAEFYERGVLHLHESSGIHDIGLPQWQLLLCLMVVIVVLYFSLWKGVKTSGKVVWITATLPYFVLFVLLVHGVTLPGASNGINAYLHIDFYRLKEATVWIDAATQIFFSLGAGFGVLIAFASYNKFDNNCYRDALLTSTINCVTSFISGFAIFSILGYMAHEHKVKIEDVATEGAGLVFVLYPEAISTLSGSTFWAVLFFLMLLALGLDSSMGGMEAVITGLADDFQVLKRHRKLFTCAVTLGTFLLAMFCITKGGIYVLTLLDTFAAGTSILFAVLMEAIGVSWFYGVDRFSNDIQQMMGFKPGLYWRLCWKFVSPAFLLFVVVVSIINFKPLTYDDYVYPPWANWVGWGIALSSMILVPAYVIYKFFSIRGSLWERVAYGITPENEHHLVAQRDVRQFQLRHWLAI
# T4 sequence (P31652 whole entry): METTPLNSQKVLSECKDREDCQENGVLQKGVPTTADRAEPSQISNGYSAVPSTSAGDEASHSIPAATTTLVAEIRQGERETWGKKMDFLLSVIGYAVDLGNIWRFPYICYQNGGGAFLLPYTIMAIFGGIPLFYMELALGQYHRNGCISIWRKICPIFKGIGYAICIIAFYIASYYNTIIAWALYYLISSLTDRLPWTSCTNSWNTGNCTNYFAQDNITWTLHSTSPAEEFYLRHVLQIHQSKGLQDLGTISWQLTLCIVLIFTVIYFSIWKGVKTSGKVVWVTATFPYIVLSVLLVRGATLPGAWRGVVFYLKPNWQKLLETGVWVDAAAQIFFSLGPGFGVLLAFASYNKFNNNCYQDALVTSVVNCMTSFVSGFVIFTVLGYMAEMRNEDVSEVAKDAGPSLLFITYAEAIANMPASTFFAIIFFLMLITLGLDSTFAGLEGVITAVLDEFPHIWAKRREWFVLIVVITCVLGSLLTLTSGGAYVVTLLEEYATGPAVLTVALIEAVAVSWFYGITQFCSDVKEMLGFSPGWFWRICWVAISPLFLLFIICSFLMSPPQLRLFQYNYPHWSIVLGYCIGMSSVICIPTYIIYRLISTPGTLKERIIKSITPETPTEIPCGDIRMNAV
# T5 sequence (P19490 19-907): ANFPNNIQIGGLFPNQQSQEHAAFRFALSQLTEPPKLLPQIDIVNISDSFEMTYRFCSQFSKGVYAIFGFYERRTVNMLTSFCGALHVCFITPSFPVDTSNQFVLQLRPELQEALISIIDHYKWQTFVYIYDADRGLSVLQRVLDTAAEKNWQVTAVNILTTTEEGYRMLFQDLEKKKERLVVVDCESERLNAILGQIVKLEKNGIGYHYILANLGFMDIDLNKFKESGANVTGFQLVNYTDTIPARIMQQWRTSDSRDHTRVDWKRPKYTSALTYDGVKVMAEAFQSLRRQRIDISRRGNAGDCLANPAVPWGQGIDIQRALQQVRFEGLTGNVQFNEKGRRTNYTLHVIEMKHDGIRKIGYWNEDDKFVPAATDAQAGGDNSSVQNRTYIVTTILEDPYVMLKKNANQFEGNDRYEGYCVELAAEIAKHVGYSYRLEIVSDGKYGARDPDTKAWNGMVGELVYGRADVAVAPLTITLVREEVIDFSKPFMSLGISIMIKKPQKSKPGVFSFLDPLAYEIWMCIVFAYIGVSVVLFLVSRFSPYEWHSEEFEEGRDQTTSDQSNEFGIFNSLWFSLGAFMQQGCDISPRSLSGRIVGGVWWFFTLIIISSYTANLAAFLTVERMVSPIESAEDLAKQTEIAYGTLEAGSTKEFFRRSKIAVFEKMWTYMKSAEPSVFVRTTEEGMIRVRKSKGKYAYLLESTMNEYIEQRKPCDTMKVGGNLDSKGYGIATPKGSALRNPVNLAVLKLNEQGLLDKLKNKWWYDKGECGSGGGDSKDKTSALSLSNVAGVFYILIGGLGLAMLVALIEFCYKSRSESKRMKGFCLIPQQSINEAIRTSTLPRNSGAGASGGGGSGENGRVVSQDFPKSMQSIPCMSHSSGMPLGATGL
# T6 sequence (P19492 23-888): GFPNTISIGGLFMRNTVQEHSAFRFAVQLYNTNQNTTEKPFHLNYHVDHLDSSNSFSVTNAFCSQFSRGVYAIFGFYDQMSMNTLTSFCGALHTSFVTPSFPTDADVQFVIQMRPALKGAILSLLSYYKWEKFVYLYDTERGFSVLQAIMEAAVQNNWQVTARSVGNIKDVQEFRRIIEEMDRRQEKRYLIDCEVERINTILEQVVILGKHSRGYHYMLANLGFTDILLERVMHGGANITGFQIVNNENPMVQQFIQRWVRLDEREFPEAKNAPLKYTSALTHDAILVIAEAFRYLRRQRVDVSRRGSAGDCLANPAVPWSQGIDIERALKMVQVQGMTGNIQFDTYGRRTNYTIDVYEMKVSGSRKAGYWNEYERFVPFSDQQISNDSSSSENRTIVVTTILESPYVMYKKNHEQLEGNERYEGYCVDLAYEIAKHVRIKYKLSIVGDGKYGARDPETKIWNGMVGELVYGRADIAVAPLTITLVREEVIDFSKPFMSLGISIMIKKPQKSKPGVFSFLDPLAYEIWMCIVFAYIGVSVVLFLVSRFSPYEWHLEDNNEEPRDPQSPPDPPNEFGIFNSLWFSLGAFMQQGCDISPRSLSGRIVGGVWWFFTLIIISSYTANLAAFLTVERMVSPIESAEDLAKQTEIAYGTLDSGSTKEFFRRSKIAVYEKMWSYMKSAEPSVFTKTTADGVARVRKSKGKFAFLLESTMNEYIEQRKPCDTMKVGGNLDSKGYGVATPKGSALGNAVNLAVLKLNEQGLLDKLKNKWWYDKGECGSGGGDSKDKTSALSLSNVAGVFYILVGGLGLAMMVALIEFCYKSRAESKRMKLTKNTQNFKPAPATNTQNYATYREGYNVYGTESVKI
# T7 sequence (A7XY94 25-1448, other chains not shown): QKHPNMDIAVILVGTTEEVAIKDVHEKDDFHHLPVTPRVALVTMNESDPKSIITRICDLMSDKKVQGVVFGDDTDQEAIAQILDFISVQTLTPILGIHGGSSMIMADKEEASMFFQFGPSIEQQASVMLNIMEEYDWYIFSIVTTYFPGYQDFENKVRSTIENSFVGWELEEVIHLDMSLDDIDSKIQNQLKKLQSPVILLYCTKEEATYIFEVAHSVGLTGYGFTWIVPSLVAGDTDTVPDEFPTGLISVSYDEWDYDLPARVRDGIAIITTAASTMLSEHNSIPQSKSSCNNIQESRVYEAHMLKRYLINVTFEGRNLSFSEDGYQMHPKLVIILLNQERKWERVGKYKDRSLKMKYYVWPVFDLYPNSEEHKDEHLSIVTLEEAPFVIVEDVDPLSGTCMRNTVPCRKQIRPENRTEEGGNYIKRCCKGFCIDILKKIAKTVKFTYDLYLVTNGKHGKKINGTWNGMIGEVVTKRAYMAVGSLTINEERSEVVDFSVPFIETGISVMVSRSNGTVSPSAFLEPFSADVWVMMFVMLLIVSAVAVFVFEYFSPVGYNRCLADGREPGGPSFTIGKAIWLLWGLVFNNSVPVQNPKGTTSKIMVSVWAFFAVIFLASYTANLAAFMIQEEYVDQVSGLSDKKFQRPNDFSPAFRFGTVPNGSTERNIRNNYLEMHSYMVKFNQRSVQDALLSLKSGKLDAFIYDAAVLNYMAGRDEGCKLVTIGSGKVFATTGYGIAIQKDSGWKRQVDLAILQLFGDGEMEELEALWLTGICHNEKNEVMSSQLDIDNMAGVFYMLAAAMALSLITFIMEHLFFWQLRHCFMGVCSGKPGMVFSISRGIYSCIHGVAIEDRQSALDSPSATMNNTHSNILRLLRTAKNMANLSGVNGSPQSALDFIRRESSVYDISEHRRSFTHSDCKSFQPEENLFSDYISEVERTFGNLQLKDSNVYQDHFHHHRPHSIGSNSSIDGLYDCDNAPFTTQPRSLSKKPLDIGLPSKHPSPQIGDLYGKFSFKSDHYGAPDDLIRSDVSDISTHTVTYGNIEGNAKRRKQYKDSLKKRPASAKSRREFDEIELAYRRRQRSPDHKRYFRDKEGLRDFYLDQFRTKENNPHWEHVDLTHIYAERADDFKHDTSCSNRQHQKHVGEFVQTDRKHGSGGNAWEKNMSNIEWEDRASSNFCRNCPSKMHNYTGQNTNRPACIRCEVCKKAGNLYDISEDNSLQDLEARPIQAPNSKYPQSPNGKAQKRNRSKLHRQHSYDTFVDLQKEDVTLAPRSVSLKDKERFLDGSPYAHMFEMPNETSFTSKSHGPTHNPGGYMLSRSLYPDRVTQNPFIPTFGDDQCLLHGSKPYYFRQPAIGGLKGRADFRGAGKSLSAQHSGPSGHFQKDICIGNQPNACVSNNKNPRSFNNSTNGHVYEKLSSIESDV
smiles,measurement,setting,value
"NCCC(c1cccc(F)c1)c1cccc(F)c1 [Compound 20, 3,3-bis(3-fluorophenyl)-1-propylamine]",IC50,NMDA receptor [1],0.07 µM
same,IC50,[2],0.252 µM
same,IC50,L-type calcium channel,2200 nM
same,IC50,[3],1 to 10 µM
same,Central muscarinic cholinergic receptor: percent block of [3H]QNB binding,[4]; at 0.1 μM,8% at
same,Central muscarinic cholinergic receptor: percent block of [3H]QNB binding,[4]; at 10 μM,0.190% at
same,"Monoamine uptake binding assays: dopamine uptake binding assay, percent block",dopamine uptake site; at 0.1 μM,6% at
same,"Monoamine uptake binding assays: dopamine uptake binding assay, percent block",dopamine uptake site; at 10 μM,0.1^f81% at
same,"Monoamine uptake binding assays: norepinephrine uptake binding assay, percent block",[5]; at 0.1 μM,5% at
same,"Monoamine uptake binding assays: norepinephrine uptake binding assay, percent block",[5]; at 10 μM,0.1^g58% at
same,"Monoamine uptake binding assays: serotonin uptake binding assay, percent block",serotonin uptake site; at 0.1 μM,10^g28% at
same,"Monoamine uptake binding assays: serotonin uptake binding assay, percent block",serotonin uptake site; at 10 μM,0.1^h94% at
same,Suppression of NMDA Receptor-Mediated Synaptic Transmission (concentration which suppresses),NMDA receptor [6],30 to 300 µM
same,LTP Assay (block of the induction of LTP),induction of LTP,block at 100
same,reduction in the infarct volume,permanent focal ischemia,24%
same,reduction in the infarct volume,focal ischemia,50%
same,reduction in the infarct volume,temporary focal ischemia; 2 hr after occlusion (time of reperfusion) and 6 hr later,43%
same,reduction in the infarct volume,temporary focal ischemia; immediately after middle cerebral artery occlusion and 6 hr later,51%
same,ED50,sound-induced seizures; ip,2.1 mg/kg
same,ED50,sound-induced seizures; oral,9.7 mg/kg
same,ED50,[7],20.1 mg/kg
same,no significant anticonvulsant activity against maximal electroshock-induced seizures at doses up to,[7]; oral (p.o.),up to 30 mg/kg
same,ED50,[8]; po,33.6 mg/kg
same,"seizure threshold, i.v. Metrazol test",seizure threshold,an increase in seizure threshold
same,analgesic activity against acetic acid-induced abdominal writhing,[9],"significant analgesic activity, not blocked by naloxone"
same,"analgesic activity, rat 52° C. hot plate test",thermal nociception [10],no significant analgesic activity
same,"analgesic activity, rat 48° C. tail flick test",thermal nociception [11],no significant analgesic activity
same,"analgesic activity, rat formalin test",[12],"significant analgesic activity, not blocked by the opiate receptor antagonist naloxone"
same,TD50,in vivo [13],20.6 mg/kg
same,TD50 (motor impairment),motor performance; i.p.,19.9 mg/kg
same,TD50 (motor impairment),motor performance; oral,21.8 mg/kg
same,motor impairment,"motor performance; mice, 30 mg/kg p.o.",motor impairment
same,no generalization to PCP at doses up to the behaviorally active dose of,[14],≤ 10 mg/kg
same,no significant cardiovascular activity in anesthetized rats at doses up to,[15]; i.p.,≤ 10 mg/kg
same,TD50,[16],55.9 mg/kg
same,behavioral effects,behavior [17]; [25],"increased motor activity, agitation and anxiousness, slight tremors, licking of the mouth, whining, and urination"
same,behavioral effects,behavior [17]; [26],"dilated pupils, whole body tremors, incoordination, licking of the mouth, salivation, panting, rapid blinking of the eyes, whining, anxiousness, seizures, and death"
same,behavioral effects,behavior [18]; 8 mg/kg i.p.,excitation and increased reactivity to touch
same,behavioral effects,behavior [18]; 64 mg/kg i.p.,convulsions and death
same,behavioral effects,behavior [18]; 2 and 4 mg/kg i.p.,no behavioral effects
same,behavioral effects,behavior [18]; 16 and 32 mg/kg i.p.,"excitation, Straub tail, tremor, stereotypies, hypothermia, and mydriasis"
same,behavioral effects,behavior [18]; 128 and 256 mg/kg i.p.,convulsions and death
same,cardiovascular activity,[19]; 0.3 mg/kg i.v. (60 sec bolus injection),no significant cardiovascular activity
same,cardiovascular activity,[19]; 1 mg/kg i.v. (60 sec bolus injection),no significant cardiovascular activity
same,heart rate,[19]; [25],transient increases in mean arterial pressure and heart rate
same,mean arterial pressure,[19]; [25],transient increases in mean arterial pressure and heart rate
same,heart rate,[19]; [26],larger magnitude and longer duration effects
same,mean arterial pressure,[19]; [26],larger magnitude and longer duration effects
same,behavioral effects,behavior [20]; 2 mg/kg i.v.,no behavioral effects
same,behavioral effects,behavior [20]; 32 mg/kg i.v.,"Straub tail, convulsions, and death"
same,behavioral effects,behavior [20]; doses ranging from 4 to 16 mg/kg i.v.,"excitation, stereotypies, increased reactivity to touch, increased muscle tone, and tremor"
"COc1ccccc1C(CCN)c1cccc(F)c1 (stereo not shown) [Compound 24, 3-(3-fluorophenyl)-3-(2-methoxyphenyl)-1-propylamine]",IC50,NMDA receptor [1],0.206 µM
same,IC50,[2],0.591 µM
same,ED50,sound-induced seizures; ip,5 mg/kg
same,ED50,"[8]; rats, oral",46 mg/kg
same,TD50,in vivo [13]; Frings,16 mg/kg
same,neuroprotectant activity in a rat model of focal ischemic stroke,focal ischemic stroke,no significant neuroprotectant activity
same,no significant cardiovascular activity in anesthetized rats at doses up to,[15]; i.v.,up to 10 mg/kg
same,TD50,in vivo [21],51 mg/kg
"COc1cccc(C(CCN)c2cccc(F)c2)c1 (stereo not shown) [Compound 25, 3-(3-fluorophenyl)-3-(3-methoxyphenyl)-1-propylamine]",IC50,NMDA receptor [1],0.279 µM
same,IC50,[2],0.871 µM
same,ED50,[7],12.5 mg/kg
same,ED50,"[8]; rats, oral",46.4 mg/kg
same,TD50,in vivo [13],32.2 mg/kg
same,TD50,in vivo [21],163 to 326 mg/kg
NCCCNCCCCNCCC(=O)NCCCCCNC(=O)[C@H](CC(N)=O)NC(=O)Cc1ccc(O)cc1O [JSTX-3],IC50,GluR1 [22],40 nM
same,IC50,GluR3,30 nM
CCCC(=O)N[C@@H](Cc1ccc(O)cc1)C(=O)NCCCNCCCCNCCCN [PhTX-343],IC50,NMDA receptors,2500 nM
same,IC50,kainate receptors,120 nM
same,IC50,NMDAR1,2190 nM
same,IC50,GluR1 [23],2800 nM
same,IC50,GluR1+GluR2,270 µM
NCCCNCCCCNCCCNCCCN(O)CCCNC(=O)Cc1c[nH]c2ccccc12 [agatoxin-489],muscle relaxation and anesthesia,[24],not
